Laboratory results: patent US11840686B2, “Modulation of prekallikrein (PKK) expression” (Ionis Pharmaceuticals, Inc., priority 2013, dated 2023)
Strand notation (5' to 3'): a small letter for the sugar, then the base; units joined by * are phosphorothioate-linked, units joined directly phosphodiester-linked; [ ] holds rarer units or linkages, { } end groups; capitals alone tell only the bases. e = 2'-O-(2-methoxyethyl) (MOE); [5mC] = 5-methylcytosine; d = 2'-deoxy (DNA)

Key:
human PKK mRNA [1] = assay: Antisense inhibition of human PKK mRNA in HepaRG cells, 5,000 nM (Example 2); assay type: cell-based; conditions: electroporation with 5,000 nM antisense oligonucleotide, approx. 24 hours, PKK mRNA by RT-PCR (RTS3454), relative to untreated control cells
How it was run: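 HepaRG cells, 20,000 per well, were electroporated with 5,000 nM MOE gapmer (phosphorothioate, 5-methylcytosine) and incubated about 24 hours. PKK mRNA was quantified by qRT-PCR with primer probe set RTS3454, normalized to RIBOGREEN total RNA, and expressed as percent inhibition versus untreated controls.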

PKK mRNA = PKK mRNA in cynomolgus monkey liver (Example 8); assay type: in vivo; conditions: 40 mg/kg s.c., loading then weekly to week 13; day 87 or 88, 48 h after final dose
Method: Cynomolgus monkeys were treated with ISIS antisense oligonucleotides selected from studies described above. Antisense oligonucleotide efficacy and tolerability were evaluated. The human antisense oligonucleotides tested are cross-reactive with the rhesus genomic sequence (GENBANK Accession No. NW_001118167.1 truncated from nucleotides 2358000 to 2391000 and designated herein as SEQ ID NO: 18).
On day 87 or 88, 48 hours after the final dose, RNA was extracted from liver tissue for real-time PCR analysis of PKK using primer probe set RTS3455 (forward sequence […], designated herein as SEQ ID NO: 23; reverse sequence […], designated herein as SEQ ID NO: 24; probe sequence […], designated herein as SEQ ID NO: 25). The results were normalized to the housekeeping gene, Cyclophilin. Results are presented as percent inhibition of PKK mRNA, relative to PBS control.

PKK protein = assay: Plasma PKK protein levels in human KLKB1 transgenic mice (Example 7); assay type: in vivo; conditions: plasma, twice a week for 3 weeks
Method: (§1) Transgenic mice containing a 37,390 base pair fragment of the human KLKB1 gene sequence (chromosome 4: position 187148672-187179625, accession no: NC_000004.11) were treated with ISIS antisense oligonucleotides selected from studies described above, which were evaluated for efficacy in this model.
(§2) Groups of transgenic mice were injected subcutaneously twice a week for 3 weeks with 2.5 mg/kg/week, 5.0 mg/kg/week, 10 mg/kg/week or 20 mg/kg/week of ISIS 546232, ISIS 546251, ISIS 546254, ISIS 546343, ISIS 546828, ISIS 547455, ISIS 547457, ISIS 547927, and ISIS 548048. One group of transgenic mice was injected subcutaneously twice a week for 3 weeks with PBS. Mice were euthanized 48 hours after the last dose, and organs and plasma were harvested for further analysis.
Plasma PKK protein levels were evaluated in all groups. Results are presented as percent inhibition of PKK protein, relative to PBS control.

human PKK mRNA [2] = assay: Human PKK mRNA in liver of human KLKB1 transgenic mice (Example 7); assay type: in vivo; conditions: twice a week for 3 weeks
Method: as §1, §2
To evaluate the effect of ISIS oligonucleotides on target reduction, RNA was extracted from liver tissue for real-time PCR analysis of human PKK. Results are presented as percent inhibition of PKK mRNA, relative to PBS control.

human PKK mRNA [3] = assay: Dose-dependent antisense inhibition of human PKK in HepaRG cells, 0.19-5.00 uM (Example 5); assay type: cell-based; conditions: for percent inhibition of PKK mRNA, 0.19 μM: 0.19 μM antisense oligonucleotide; for percent inhibition of PKK mRNA, 0.56 μM: 0.56 μM antisense oligonucleotide; for percent inhibition of PKK mRNA, 1.67 μM: 1.67 μM antisense oligonucleotide; for percent inhibition of PKK mRNA, 5.00 μM: 5.00 μM antisense oligonucleotide
How it was run: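 HepaRG cells (20,000/well) were electroporated with antisense oligonucleotide at 0.19, 0.56, 1.67 and 5.00 μM and treated for about 16 hours. PKK mRNA was quantified by qRT-PCR with primer probe set RTS3454, normalised to RIBOGREEN total RNA, and IC50 was derived per oligonucleotide.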

[4] = HepaRG cells, electroporation, approximately 16 hours, Table 39
[5] = HepaRG cells, electroporation, approximately 16 hours, Table 36
[6] = Table 34, HepaRG, electroporation, ~16 h

Row | Substance | % inhibition (human PKK mRNA [1]; Table 7, HepaRG cells) | % inhibition of PKK mRNA in the cynomolgus monkey liver relative to the PBS control (PKK mRNA) | % inhibition of PKK protein levels in the transgenic mice relative to the PBS control (PKK protein; 2.5 mg/kg/week sc) | % inhibition of PKK protein levels in the transgenic mice relative to the PBS control (PKK protein; 5 mg/kg/week sc) | % inhibition of PKK protein levels in the transgenic mice relative to the PBS control (PKK protein; 10 mg/kg/week sc) | % inhibition of PKK protein levels in the transgenic mice relative to the PBS control (PKK protein; 20 mg/kg/week sc) | % inhibition of PKK mRNA in the transgenic mice liver relative to the PBS control (human PKK mRNA [2]; 2.5 mg/kg/week sc) | % inhibition of PKK mRNA in the transgenic mice liver relative to the PBS control (human PKK mRNA [2]; 5 mg/kg/week sc) | % inhibition of PKK mRNA in the transgenic mice liver relative to the PBS control (human PKK mRNA [2]; 10 mg/kg/week sc) | % inhibition of PKK mRNA in the transgenic mice liver relative to the PBS control (human PKK mRNA [2]; 20 mg/kg/week sc) | percent inhibition of PKK mRNA, 0.19 μM (human PKK mRNA [3]; HepaRG cells) | percent inhibition of PKK mRNA, 0.56 μM (human PKK mRNA [3]; HepaRG cells) | percent inhibition of PKK mRNA, 1.67 μM (human PKK mRNA [3]; HepaRG cells) | percent inhibition of PKK mRNA, 5.00 μM (human PKK mRNA [3]; HepaRG cells) | IC50 (human PKK mRNA [3]; HepaRG cells, 0.19-5.00 μM) | further results
1 | 546232 (eA*eG*eG*eA*eA*d[5mC]*dT*dT*dG*dG*dT*dG*dT*dG*d[5mC]*e[5mC]*eA*e[5mC]*eT*eT) [compound 546232] | 86% | 88% | 0% | 6% | 33% | 79% | 57% | 53% | 30% | 84% | 0% | 74% | 95% | 96% | 0.2 µM | percent inhibition of PKK at 0.19 μM (human PKK mRNA [3]; [4]): 49%; percent inhibition of PKK at 0.56 μM (human PKK mRNA [3]; [4]): 50%; percent inhibition of PKK at 1.67 μM (human PKK mRNA [3]; [4]): 94%; percent inhibition of PKK at 5.00 μM (human PKK mRNA [3]; [4]): 97%; IC50 (human PKK mRNA [3]; 4 point dose response, HepaRG cells, Table 39): 0.2 µM
2 | 546251 (eG*eG*e[5mC]*eA*eA*dA*d[5mC]*dA*dT*dT*d[5mC]*dA*d[5mC]*dT*d[5mC]*e[5mC]*eT*eT*eT*eA) [compound 546251] | 92% | 90% | 22% | 30% | 52% | 69% | 13% | 51% | 66% | 79% | 19% | 45% | 91% | 97% | 0.6 µM | percent inhibition of PKK at 0.19 μM (human PKK mRNA [3]; [5]): 31%; percent inhibition of PKK at 0.56 μM (human PKK mRNA [3]; [5]): 60%; percent inhibition of PKK at 1.67 μM (human PKK mRNA [3]; [5]): 99%; percent inhibition of PKK at 5.00 μM (human PKK mRNA [3]; [5]): 89%; IC50 (human PKK mRNA [3]; 4 point dose response, HepaRG cells, Table 36): 0.5 µM
3 | 546254 (eT*eG*e[5mC]*eA*eA*dG*dT*d[5mC]*dT*d[5mC]*dT*dT*dG*dG*d[5mC]*eA*eA*eA*e[5mC]*eA) [compound 546254] |  | 88% | 0% | 36% | 51% | 76% | 31% | 55% | 84% | 83% |  |  |  |  |  | % inhibition (human PKK mRNA [1]; Table 8, HepaRG cells): 95%; percent inhibition of PKK at 5.00 μM (human PKK mRNA [3]; HepaRG cells, electroporation, approximately 16 hours, Table 41): 95%; percent inhibition of PKK at 0.19 0μM (human PKK mRNA [3]; 0.19 0μM, HepaRG cells, electroporation, approximately 16 hours, Table 41): 40%; percent inhibition of PKK at 0.56 0μM (human PKK mRNA [3]; 0.56 0μM, HepaRG cells, electroporation, approximately 16 hours, Table 41): 63%; percent inhibition of PKK at 1.67 1μM (human PKK mRNA [3]; 1.67 1μM, HepaRG cells, electroporation, approximately 16 hours, Table 41): 84%; IC50 (human PKK mRNA [3]; 4 point dose response, HepaRG cells, Table 41): 0.3 µM; percent inhibition of PKK at 0.19 μM (human PKK mRNA [3]; [6]): 51%; percent inhibition of PKK at 0.56 μM (human PKK mRNA [3]; [6]): 66%; percent inhibition of PKK at 1.67 μM (human PKK mRNA [3]; [6]): 80%; percent inhibition of PKK at 5.00 μM (human PKK mRNA [3]; [6]): 91%; IC50 (human PKK mRNA [3]; Table 34, PKK mRNA, HepaRG, electroporation, ~16 h): 0.2 µM
4 | 547455 (antisense eA*eT*eA*eT*e[5mC]*dA*dT*dG*dA*dT*dT*d[5mC]*d[5mC]*d[5mC]*dT*eT*e[5mC]*eT*eG*eA) [compound 547455] |  | 90% | 0% | 0% | 32% | 78% | 0% | 69% | 45% | 62% |  |  |  |  |  | % inhibition (human PKK mRNA [1]; Table 9 experiment, HepaRG cells, 20,000 cells per well): 88%; % inhibition (human PKK mRNA [1]; Table 10 experiment, HepaRG cells, 20,000 cells per well): 66%
